From ChEMBL document CHEMBL3885881, “DrugMatrix”

Species on record: Rattus norvegicus
Test: DrugMatrix - Regimen: Daily Repeat
Format: toxicity, organism-based, Sprague-Dawley
Design: regimen Daily Repeat, gender Male, age 6-8 weeks
Settings: in vivo, iv, vehicle 100 % SALINE; for ABSOLUTE BASOPHIL / ABSOLUTE EOSINOPHIL / ABSOLUTE LYMPHOCYTE / ABSOLUTE MONOCYTE / ABSOLUTE SEGMENTED NEUTROPHIL / BASOPHIL / EOSINOPHIL / ERYTHROCYTE COUNT / HEMATOCRIT / HEMOGLOBIN / LEUKOCYTE COUNT / LYMPHOCYTE / MEAN CORPUSCULAR HEMOGLOBIN / MEAN CORPUSCULAR HEMOGLOBIN CONCENTRATION / MEAN CORPUSCULAR VOLUME / MONOCYTE / NEUTROPHIL / NUCLEATED RED BLOOD CELLS / PLATELET COUNT: tissue Blood; for ALANINE AMINOTRANSFERASE / ALBUMIN / ALKALINE PHOSPHATASE / ASPARTATE AMINOTRANSFERASE / BLOOD UREA NITROGEN / CARBON DIOXIDE / CHLORIDE / CHOLESTEROL / CREATINE PHOSPHOKINASE / CREATININE / GLUCOSE / LACTATE DEHYDROGENASE / LIPASE / PHOSPHORUS / POTASSIUM / SODIUM / TOTAL BILIRUBIN / TOTAL PROTEIN / URIC ACID: tissue Plasma
[1] = 0 mg/kg, 72 h, dose level Control, time 3 day
[2] = 0 mg/kg, 120 h, dose level Control, time 5 day
[3] = 0.005 mg/kg, 72 h, dose level Low, time 3 day

CC(=O)O[C@H]1C[C@@H]2CC[C@@H]3[C@H](CC[C@@]4(C)[C@H]3C[C@H]([N+]3(C)CCCCC3)[C@@H]4OC(C)=O)[C@@]2(C)C[C@@H]1N1CCCCC1.[Br-] [VECURONIUM BROMIDE]
ABSOLUTE BASOPHIL [1]: 0 CELLS/uL | ABSOLUTE EOSINOPHIL [1]: 0 CELLS/uL | ABSOLUTE LYMPHOCYTE [1]: 11636.83 CELLS/uL | ABSOLUTE MONOCYTE [1]: 159 CELLS/uL | ABSOLUTE SEGMENTED NEUTROPHIL [1]: 1170.83 CELLS/uL | BASOPHIL [1]: 0% | EOSINOPHIL [1]: 0% | ERYTHROCYTE COUNT [1]: 5.46 x10E6/uL | HEMATOCRIT [1]: 34.05% | HEMOGLOBIN [1]: 13.58 G/DL | LEUKOCYTE COUNT [1]: 12.97 x10E3/uL | LYMPHOCYTE [1]: 89.67% | MEAN CORPUSCULAR HEMOGLOBIN [1]: 24.87 pg | MEAN CORPUSCULAR HEMOGLOBIN CONCENTRATION [1]: 39.9 G/DL | MEAN CORPUSCULAR VOLUME [1]: 62.3 fL | MONOCYTE [1]: 1.33% | NEUTROPHIL [1]: 9% | NUCLEATED RED BLOOD CELLS [1]: 0.17 /100WBC | PLATELET COUNT [1]: 824 x10E3/uL | ALANINE AMINOTRANSFERASE [1]: 64.83 u/L | ALBUMIN [1]: 4.08 G/DL | ALKALINE PHOSPHATASE [1]: 421 u/L | ASPARTATE AMINOTRANSFERASE [1]: 116.83 u/L | BLOOD UREA NITROGEN [1]: 16.83 mg/dL | CARBON DIOXIDE [1]: 28 mmol/L | CHLORIDE [1]: 101.33 MEQ/L | CHOLESTEROL [1]: 74.17 mg/dL | CREATINE PHOSPHOKINASE [1]: 748.5 u/L | CREATININE [1]: 0.22 mg/dL | GLUCOSE [1]: 152.83 mg/dL | LACTATE DEHYDROGENASE [1]: 578.5 u/L | LIPASE [1]: 9.83 u/L | PHOSPHORUS [1]: 11.63 mg/dL | POTASSIUM [1]: 5.93 MEQ/L | SODIUM [1]: 142.1 MEQ/L | TOTAL BILIRUBIN [1]: 0.17 mg/dL | TOTAL PROTEIN [1]: 5.77 G/DL | URIC ACID [1]: 1.43 mg/dL | ABSOLUTE BASOPHIL [2]: 0 CELLS/uL | ABSOLUTE EOSINOPHIL [2]: 159.17 CELLS/uL | ABSOLUTE LYMPHOCYTE [2]: 12267.5 CELLS/uL | ABSOLUTE MONOCYTE [2]: 30 CELLS/uL | ABSOLUTE SEGMENTED NEUTROPHIL [2]: 1160 CELLS/uL | BASOPHIL [2]: 0% | EOSINOPHIL [2]: 1.17% | ERYTHROCYTE COUNT [2]: 5.52 x10E6/uL | HEMATOCRIT [2]: 34.3% | HEMOGLOBIN [2]: 13.73 G/DL | LEUKOCYTE COUNT [2]: 13.62 x10E3/uL | LYMPHOCYTE [2]: 90.5% | MEAN CORPUSCULAR HEMOGLOBIN [2]: 24.92 pg | MEAN CORPUSCULAR HEMOGLOBIN CONCENTRATION [2]: 40.07 G/DL | MEAN CORPUSCULAR VOLUME [2]: 62.17 fL | MONOCYTE [2]: 0.17% | NEUTROPHIL [2]: 8.17% | NUCLEATED RED BLOOD CELLS [2]: 0.17 /100WBC | PLATELET COUNT [2]: 1261.83 x10E3/uL | ALANINE AMINOTRANSFERASE [2]: 58.67 u/L | ALBUMIN [2]: 4.15 G/DL | ALKALINE PHOSPHATASE [2]: 364.67 u/L | ASPARTATE AMINOTRANSFERASE [2]: 105.33 u/L | BLOOD UREA NITROGEN [2]: 17.67 mg/dL | CARBON DIOXIDE [2]: 26.5 mmol/L | CHLORIDE [2]: 101.67 MEQ/L | CHOLESTEROL [2]: 63 mg/dL | CREATINE PHOSPHOKINASE [2]: 480.67 u/L | CREATININE [2]: 0.17 mg/dL | GLUCOSE [2]: 144.67 mg/dL | LACTATE DEHYDROGENASE [2]: 540.33 u/L | LIPASE [2]: 10.33 u/L | PHOSPHORUS [2]: 11.52 mg/dL | POTASSIUM [2]: 6.12 MEQ/L | SODIUM [2]: 142.45 MEQ/L | TOTAL BILIRUBIN [2]: 0.18 mg/dL | TOTAL PROTEIN [2]: 5.73 G/DL | URIC ACID [2]: 1.48 mg/dL | ABSOLUTE BASOPHIL [3]: 0 CELLS/uL | ABSOLUTE EOSINOPHIL [3]: 199.67 CELLS/uL | ABSOLUTE LYMPHOCYTE [3]: 11233.67 CELLS/uL | ABSOLUTE MONOCYTE [3]: 56 CELLS/uL | ABSOLUTE SEGMENTED NEUTROPHIL [3]: 844 CELLS/uL | BASOPHIL [3]: 0% | EOSINOPHIL [3]: 1.33% | ERYTHROCYTE COUNT [3]: 5.06 x10E6/uL | HEMATOCRIT [3]: 32.6% | HEMOGLOBIN [3]: 13.3 G/DL | LEUKOCYTE COUNT [3]: 12.33 x10E3/uL | LYMPHOCYTE [3]: 91.67% | MEAN CORPUSCULAR HEMOGLOBIN [3]: 26.33 pg | MEAN CORPUSCULAR HEMOGLOBIN CONCENTRATION [3]: 40.8 G/DL | MEAN CORPUSCULAR VOLUME [3]: 64.5 fL | MONOCYTE [3]: 0.33% | NEUTROPHIL [3]: 6.67% | NUCLEATED RED BLOOD CELLS [3]: 0.33 /100WBC | PLATELET COUNT [3]: 730.67 x10E3/uL | ALANINE AMINOTRANSFERASE [3]: 57 u/L | ALBUMIN [3]: 4.2 G/DL | ALKALINE PHOSPHATASE [3]: 421.67 u/L | ASPARTATE AMINOTRANSFERASE [3]: 117.33 u/L | BLOOD UREA NITROGEN [3]: 19 mg/dL | CARBON DIOXIDE [3]: 31 mmol/L | CHLORIDE [3]: 100.67 MEQ/L | CHOLESTEROL [3]: 72 mg/dL | CREATINE PHOSPHOKINASE [3]: 975.33 u/L | CREATININE [3]: 0.22 mg/dL | GLUCOSE [3]: 155.33 mg/dL | LACTATE DEHYDROGENASE [3]: 630.33 u/L | LIPASE [3]: 11.67 u/L | PHOSPHORUS [3]: 10.7 mg/dL | POTASSIUM [3]: 6.14 MEQ/L | SODIUM [3]: 141.83 MEQ/L | TOTAL BILIRUBIN [3]: 0.2 mg/dL | TOTAL PROTEIN [3]: 5.87 G/DL | URIC ACID [3]: 1.03 mg/dL
